Here are results for two compounds from patent publication US20080286216A1, “Surface Active Calcium Phosphates” (priority 2005, published 2008).

Bounds are passed on as bounds.

For data set [1], the system named is people living in fluoridated areas. The following applies: fluoride in drinking water; cited from earlier work.
Data set [2] relates to human dental plaque microcosm biofilms. In words: Tooth remineralisation: mineral deposition in dental plaque microcosm biofilms (Wong et al. method). The data set is classed as cell-based. The following applies: conclusion of Example 16. The procedure: This example investigated the tooth remineralisation properties of a complex according to the invention.
BMM: basal medium mucin models the nutrients present in saliva and was prepared following Wong et al, “Calcium phosphate deposition in human dental plaque microcosm biofilms induced by a ureolytic pH-rise procedure” Archives of Oral Biology 47 (2002) 779-790
The complex according to the invention was tested for its tooth remineralisation properties using the methodology described in Wong et al, “Calcium phosphate deposition in human dental plaque microcosm biofilms induced by a ureolytic pH-rise procedure” Archives of Oral Biology 47 (2002) 779-790.
Ca & P units: mmol/g protein, F units: μmol/g protein
Mineralisation regime: 14 days mineralisation; 3 doses of testing composition and 10% sucrose daily

As for `F` [fluoride], in data set [1], the “aesthetically unacceptable changes to the appearance of teeth” value was “at least 12.5%” and the incidence of fluorosis is on record as at most 48%. As to “Stearamidopropyl Dimethylamine Glycerophosphate [Example 14]”, the tooth remineralisation properties result in data set [2] was “has tooth remineralisation properties”.
